Reference: patent publication US12144874B2, “Synthesis and composition of photodynamic therapeutic agents for the targeted treatment of cancer” (On Target Laboratories, LLC, priority 2015, dated 2024)
Entries after “also recorded” stand apart in the source; their conditions may differ. Where two headings read alike, the source gives them in different places.

Legend:
KB tumors = assay: Time dependent whole body fluorescence imaging of KB tumor bearing nude mice (IVIS imager); format: in vivo
Excerpt: FIG. 3 depicts an overlay of half body (top raw) and whole body (bottom raw) fluorescence image over white light images after adjusting the threshold. KB tumor bearing mice injected with 10 nmol of BPheid-a (1) and image with IVIS imager (ex=745 nm, em=ICG, exposure time=1 s) at different time intervals.
FIG. 13 depicts an overlay of whole body fluorescence image over white light images after adjusting the threshold. KB tumor bearing mice injected with 10 nmol of 65a and image with IVIS imager (ex=745 nm, em=ICG, exposure time=1 s) at different time intervals.
In the following examples, the in vivo efficacy of the compounds is determined using KB tumor cell xenograft in nude mice. In these studies, KB cells were implanted subcutaneously and growth of the tumors was monitored. For time dependent whole body imaging, once tumors become 250-350 mm^3, the compounds were injected via tail vein and accumulation of the PS in the tumor was monitored (over 48 hours) using fluorescence imaging using IVIS imager. Moreover, once tumors grow to […], the compounds were injected via tail vein. Three hours (3 h) after injecting with the compound, tumor was treated with laser beam (75 mW/cm^2, 137 J/cm^2, exposure diameter=7.5-8 mm) for […]. In vivo efficacy of BPheid-a was evaluated by monitoring reduction of tumor volume.

subcutaneous KB tumor [1] = assay: In vivo PDT efficacy on growth of subcutaneous KB tumor xenograft in nude mice
Protocol: The growth of the tumor was monitored (images were taken) and tumor volume was measured using caliper.
In the following examples, the in vivo efficacy of the compounds is determined using KB tumor cell xenograft in nude mice. In these studies, KB cells were implanted subcutaneously and growth of the tumors was monitored. […] Moreover, once tumors grow to […], the compounds were injected via tail vein. […] In vivo efficacy of BPheid-a was evaluated by monitoring reduction of tumor volume.
KB cells that overexpressed folate receptor were implanted subcutaneously into female nude mice and allowed to grow to ˜50 mm^3 prior to initiation of treatment with 50 nmol of BPheid-a (1). […] In vivo efficacy of BPheid-a was evaluated by monitoring reduction of tumor volume.

KB cells [2] = test system: KB cells
[3] = Activation wavelength of non-targeted PDT agents; format: physicochemical; details: Table 1
KB cells [4] = assay: cells; details: Homo sapiens
subcutaneous KB tumor [5] = assay: In vivo PDT efficacy on growth of subcutaneous KB tumor xenograft in nude mice; details: 25 nmol dose, laser 75 mW/cm^2, 137 J/cm^2, 38 min, 3 h after injection
[6] = dogs; cited from earlier work
[7] = test system: folate receptor positive cancer; details: cited from earlier work
[8] = rats; cited from earlier work
[9] = 10 nmol injected, KB tumor bearing nude mice
[10] = 50 nmol dose, laser 75 mW/cm^2, 137 J/cm^2, 38 min, 3 h after injection
[11] = Table 1, non-targeted PDT agents, free drugs in DMSO, 2 h incubation, laser 6 mW/cm^2, 12 J/cm^2, 32 min, then 24 h

## CC[C@H]1c2cc3[nH]c4c(c3C)C(=O)[C@H](C(=O)OC)c4c3nc(cc4[nH]c(cc(n2)[C@@H]1C)c(C(C)=O)c4C)[C@@H](C)[C@@H]3CCC(=O)O [Compound 1, Bacteriopheophorbide-a, reference compound]
KB tumors; [9]
  Fluorescence in the tumor (level or comparison with other conjugates): very low
  Tumor specificity / uptake in other tissues (whole body images): nonspecific uptake of BPheid-a in the skin
KB tumors; 10 nmol injected, KB tumor bearing nude mice, fluorescence imaging
  Time to localize / accumulate in the tumor after administration: ~24 h
Subcutaneous KB tumor [1]; [10]
  Effect on growth of subcutaneous KB tumor, in words: some effect
Subcutaneous KB tumor [1]; 50 nmol, laser 75 mW/cm^2, 137 J/cm^2, 38 min, 3 h after injection
  KB tumor doubling time after treatment: < 1 week
Subcutaneous KB tumor [1]; 50 nmol, laser 38 min 3 h after injection
  Tumor volume reached by the end of the two week treatment period: > 600 mm^3
KB cells [2]; [11]
  EC50: 745 nM
KB cells [2]; Table 2, mitochondrial-targeted modified PDT agents, free drugs in DMSO, 2 h incubation, laser 32 min, then 24 h
  EC50: 745 nM
KB cells [2]; Table 3, nucleus-targeted modified PDT agents, free drugs in DMSO, 2 h incubation, laser 32 min, then 24 h
  IC50: 745 nM
KB cells [2]; Table 7, folate-targeted releasable BPheid-a conjugates, different soluble linkers
  EC50: 745 nM
KB cells [2]; Table 9, folate conjugates releasing cationic BPheid-a analogues
  EC50: 745 nM
KB cells [2]; Table 11, folate conjugates releasing anionic BPheid-a analogues
  EC50: 745 nM
[3]
  Activation Wavelength: 750 nm

## CC[C@H]1c2cc3[n-]c4c(c3C)C(=O)[C@H](C(=O)OC)c4c3nc(cc4[n-]c(cc(n2)[C@@H]1C)c(C(C)=O)c4C)[C@@H](C)[C@@H]3CCC(=O)O.[Pd+2] [Compound 2, Tookad, reference compound]
KB cells [2]; [11]
  EC50: 10400 nM
[3]
  Activation Wavelength: 760 nm

## CC[C@H]1c2cc3[nH]c(c(CC(=O)OC)c4nc(cc5[nH]c(cc(n2)[C@@H]1C)c(C(C)=O)c5C)[C@@H](C)[C@@H]4CCC(=O)NCCC[C@H](NC(=O)CC[P+](c1ccccc1)(c1ccccc1)c1ccccc1)C(=O)OC(C)(C)C)c(C(=O)N[N+](C)(C)C)c3C [Compound 15]
KB cells [4]
  EC50: 47.6 nM

## CC[C@H]1c2cc3[nH]c4c(c3C)C(=O)C(C(=O)OC)c4c3nc(cc4[nH]c(cc(n2)[C@@H]1C)c(C(C)=O)c4C)[C@@H](C)[C@@H]3CCC(=O)NNC(=O)OCCSSC[C@H](NC(=O)[C@H](CC(=O)NCCS(=O)(=O)O)NC(=O)CC[C@H](NC(=O)c1ccc(NCc2cnc3nc(N)[nH]c(=O)c3n2)cc1)C(=O)O)C(=O)O (stereo partly shown) [Compound 65a]
Subcutaneous KB tumor [5]
  Effect on growth of subcutaneous KB tumor, in words: completely cured with no recurrence during the monitored time (4 weeks)
Subcutaneous KB tumor [1]; [10]
  Effect on growth of subcutaneous KB tumor, in words: completely cured with no recurrence during the monitored time (13 weeks)
Subcutaneous KB tumor [1]; 50 and 25 nmol doses, laser 38 min 3 h after injection
  Effect on growth of subcutaneous KB tumor, in words: tumor regression at both doses (50 and 25 nmol)

## CC[C@H]1c2cc3[nH]c4c(c3C)C(=O)C(C(=O)OC)c4c3nc(cc4[nH]c(cc(n2)[C@@H]1C)c(C(C)=O)c4C)[C@@H](C)[C@@H]3CCC(=O)NCCCC(C(=O)NCCSSC[C@H](NC(=O)[C@H](CC(=O)NCCS(=O)(=O)O)NC(=O)CC[C@H](NC(=O)c1ccc(NCc2cnc3nc(N)[nH]c(=O)c3n2)cc1)C(=O)O)C(=O)O)[N+](C)(C)C (stereo partly shown) [Compound 100]
Subcutaneous KB tumor [1]; [10]
  Effect on growth of subcutaneous KB tumor, in words: completely cure the tumor and showed tumor regression for 2 weeks; also recorded: completely cured with no recurrence during the monitored time (2 weeks)
KB cells [2]; 2 h
  EC50: 12.8 nM

## CC[C@H]1c2cc3[nH]c4c(c3C)C(=O)C(C(=O)OC)c4c3nc(cc4[nH]c(cc(n2)[C@@H]1C)c(C(C)=O)c4C)[C@@H](C)[C@@H]3CCC(=O)NC(Cc1ccc(N(CCCl)CCCl)cc1)C(=O)NNC(=O)OCCSSC[C@H](NC(=O)[C@H](CC(=O)NCCS(=O)(=O)O)NC(=O)CC[C@H](NC(=O)c1ccc(NCc2cnc3nc(N)[nH]c(=O)c3n2)cc1)C(=O)O)C(=O)O (stereo partly shown) [Compound 112a]
KB tumors; [9]
  Fluorescence in the tumor (level or comparison with other conjugates): more highly fluorescent
  Tumor specificity / uptake in other tissues (whole body images): highly specific for FR-positive tumors
KB tumors; 10 nmol, image 2 h after administering
  Localization in whole body images: localized mainly in the tumor
KB cells [2]; Table 12, folate-targeted releasable BPheid-a, miscellaneous
  EC50: 0.5 nM

## OTL38
[6]
  Toxicity: no toxicity
[7]; clinical trial, image-guided surgery
  Malignant lesions removed with the aid of OTL38 versus without it: approximately 5 ×
[7]; image-guided resection
  Tumor cells removed by OTL38-guided resection: approximately 95%
[8]
  Toxicity: no toxicity

## Photofrin [Compound 7]
[3]
  Activation Wavelength: 630 nm

## Visudyne [Compound 5, reference compound]
KB cells [2]; [11]
  EC50: 838 nM
[3]
  Activation Wavelength: 689 nm

## tookad soluble [Compound 4, reference compound]
KB cells [2]; [11]
  EC50: 7760 nM
[3]
  Activation Wavelength: 750 nm
